Measured values from patent US10865218B2, “Fluoride fluorescence probe” (The Procter & Gamble Company, priority 2017, dated 2020).

Key:
[1] = Fluorescence intensity change with pH variation; type: physicochemical; conditions: 10 μM, before NaF
Text: Fluorescence change of inventive compound R3 before/after treated with NaF under different pH levels are described.

[2] = Fluoride ion sensing: fluorescence and absorption spectra of the probes with NaF; type: physicochemical; conditions: probe alone, before F^−
Description: The procedure for fluoride ion sensing is described. Stock solutions of inventive compounds R1-R3 (1 mM) are prepared in DMSO. The test solutions of the inventive compounds R1-R3 (10 μM) in […] DMSO-HEPES solution (3/2, v/v, 10 mM HEPES, pH=7.2) are prepared by placing stock solutions in 10-mL volumetric flask, and diluting with buffer solution. The resulting solutions are shaken well and incubated at room temperature for 50 minutes before recording the spectra.
Sodium fluoride (NaF) is used as a fluoride source for the fluoride ion sensing test. Stock solution of NaF (1 mM) is prepared in deionized water. The test solutions of the inventive compounds R1-R3 (10 μM) with NaF (500 μM) are prepared by placing stock solutions in 10-mL volumetric flask, and diluting with buffer solution. The resulting solutions are shaken well and incubated at room temperature for 50 minutes before recording the spectra.
UV-visible spectra are recorded on a Shimadzu UV-2550 spectrometer. Steady-state emission experiments at room temperature are measured on an Edinburgh instrument FLS-920 spectrometer with a Xe lamp as an excitation source. Unless otherwise noted, for all measurements, the excitation wavelength is 620 nm and the emission wavelength is collected from 640 to 780 nm.
The color changed from colorless to blue, which can be visible by naked eyes. The reaction mechanism is further confirmed by HR-MS analysis in aqueous solution. After treated with NaF, a new peak is appeared in the solution with almost the same HR-MS data for the three compounds (R1: 284.1214; R2: 284.1202; R3: 284.1209), which is nearly identical to the theoretical molecular mass of the MB ([M−Cl^−]^+=284.1216).

Compound	pH range in which the compound remains stable [1]	absorption and emission in visible range [2]
CN(C)c1ccc2c(c1)Sc1cc(N(C)C)ccc1N2C(=O)OCc1ccc(O[Si](C)(C)C(C)(C)C)cc1 [Compound R3, 4-((tert-butyldimethylsilyl)oxy)benzyl 3,7-bis(dimethylamino)-10H-phenothiazine-10-carboxylate]	2-12	no absorption and emission in visible range
CN(C)c1ccc2c(c1)Sc1cc(N(C)C)ccc1N2C(=O)OCc1ccc(O[Si](c2ccccc2)(c2ccccc2)C(C)(C)C)cc1 [Compound R1, 4-((tert-butyldiphenylsilyl)oxy)benzyl 3,7-bis(dimethylamino)-10H-phenothiazine-10-carboxylate]		no absorption and emission in visible range
CC(C)[Si](Oc1ccc(COC(=O)N2c3ccc(N(C)C)cc3Sc3cc(N(C)C)ccc32)cc1)(C(C)C)C(C)C [Compound R2, 4-((triisopropylsilyl)oxy)benzyl 3,7-bis(dimethylamino)-10H-phenothiazine-10-carboxylate]		no absorption and emission in visible range
